Measurements: the NIST ThermoML archive (doi:10.1021/je200093f)
“And” between values parts separate entries of the source, which are not always exact repeats. Equal entries are not always repeated. ± gives the expanded uncertainty stated by the source.

Columns and labels:
[1] = xn = mol fraction of the nth substance listed; details: 298.15 K, 101 kPa, Liquid, Vibrating tube method
[2] = excess molar enthalpy (molar enthalpy of mixing); xn = mol fraction of the nth substance listed; details: 298.15 K, 101 kPa, Liquid, Calvet calorimetry
[3] = 298.15 K; 101.33 kPa; Liquid; Vibrating tube method

CN1CCCCC1 [N-methylpiperidine] + O
Details	excess molar enthalpy, [2] [kcal/mol]	mass density, [1] [kg/m3]
x1 = 0.000735	-0.00509 ± 0.000225	996.66 ± 0.21
x1 = 0.000736	-0.00513 ± 0.000225	996.651 ± 0.21
x1 = 0.000737	-0.00512 ± 0.000225	996.658 ± 0.21
x1 = 0.00147	-0.0102 ± 0.000263	996.261 ± 0.21
x1 = 0.001471	-0.0103 ± 0.000263	996.253 ± 0.21
x1 = 0.001473	-0.0102 ± 0.000263	996.26 ± 0.21
x1 = 0.002202	-0.0154 ± 0.000311	995.866 ± 0.21
x1 = 0.002206	-0.0155 ± 0.000311	995.858 ± 0.21
x1 = 0.002208	-0.0154 ± 0.000311	995.862 ± 0.21
x1 = 0.002934	-0.0206 ± 0.000359	995.483 ± 0.21
x1 = 0.002939	-0.0206 ± 0.000359	995.482 ± 0.21
x1 = 0.002942	-0.0206 ± 0.000359	995.47 ± 0.21
x1 = 0.003666	-0.0258 ± 0.000406	995.109 ± 0.21
x1 = 0.003671	-0.0258 ± 0.000406	995.097 ± 0.21
x1 = 0.003675	-0.0259 ± 0.000406	995.081 ± 0.21
x1 = 0.004398	-0.0308 ± 0.000454	994.752 ± 0.21
x1 = 0.004404	-0.0309 ± 0.000454	994.733 ± 0.21
x1 = 0.004409	-0.031 ± 0.000454	994.716 ± 0.21

Cn1ccnc1 [1-methylimidazole] + CO
Details	excess molar enthalpy, x1 = 0.005084	excess molar enthalpy, x1 = 0.007607 [kcal/mol]	excess molar enthalpy, x1 = 0.01012 [kcal/mol]	excess molar enthalpy, x1 = 0.01261 [kcal/mol]	excess molar enthalpy, x1 = 0.0151 [kcal/mol]	mass density, x1 = 0.005084	mass density, x1 = 0.007607	mass density, x1 = 0.01012	mass density, x1 = 0.01261	mass density, x1 = 0.0151
[1]	–	–	–	–	–	789.231 ± 0.61 kg/m3 and 789.234 ± 0.61 kg/m3	790.606 ± 0.61 kg/m3 and 790.615 ± 0.61 kg/m3	791.972 ± 0.61 kg/m3 and 791.975 ± 0.61 kg/m3	793.304 ± 0.61 kg/m3 and 793.323 ± 0.61 kg/m3	794.617 ± 0.61 kg/m3 and 794.633 ± 0.61 kg/m3
[2]	-0.00838 kcal/mol and -0.00841 kcal/mol	-0.0126	-0.0167	-0.0208	-0.0249	–	–	–	–	–

Cc1ccncc1 [4-methylpyridine] + CO
Details	excess molar enthalpy, [2]	mass density, [1]
x1 = 0.004138	-0.00498 ± 0.000229 kcal/mol	788.325 ± 0.61 kg/m3
x1 = 0.004139	-0.00496 ± 0.000229 kcal/mol	788.319 ± 0.61 kg/m3
x1 = 0.006195	-0.00746 kcal/mol and -0.00747 kcal/mol	789.246 ± 0.61 kg/m3 and 789.247 ± 0.61 kg/m3
x1 = 0.008243	-0.00988 ± 0.000263 kcal/mol	790.15 ± 0.61 kg/m3
x1 = 0.008244	-0.00991 ± 0.000263 kcal/mol	790.152 ± 0.61 kg/m3
x1 = 0.01028	-0.0123 kcal/mol	791.066 ± 0.61 kg/m3 and 791.039 ± 0.61 kg/m3
x1 = 0.01231	-0.0146 ± 0.000311 kcal/mol	791.923 ± 0.61 kg/m3
x1 = 0.01232	-0.0146 ± 0.000311 kcal/mol	791.924 ± 0.61 kg/m3

CN1CCOCC1 [N-methylmorpholine]
Details	mass density [kg/m3]
[3]	914.15 ± 0.45

CN1CCOCC1 [N-methylmorpholine] + O
Details	excess molar enthalpy, [2] [kcal/mol]	mass density, [1] [kg/m3]
x1 = 0.000812	-0.00565 ± 0.000229	997.058 ± 0.21
x1 = 0.000813	-0.00565 ± 0.000229	997.058 ± 0.21
x1 = 0.001623	-0.0113 ± 0.000263	997.074 ± 0.21
x1 = 0.001624	-0.0113 ± 0.000263	997.074 ± 0.21
x1 = 0.002433	-0.0169 ± 0.000311	997.095 ± 0.21
x1 = 0.002434	-0.0168 ± 0.000311	997.094 ± 0.21
x1 = 0.003242	-0.0224	997.121 ± 0.21
x1 = 0.004048	-0.0279 ± 0.00043	997.151 ± 0.21
x1 = 0.00405	-0.0279 ± 0.00043	997.153 ± 0.21
x1 = 0.004854	-0.0335 ± 0.000478	997.187 ± 0.21
x1 = 0.004858	-0.0334 ± 0.000478	997.188 ± 0.21

Cc1cccnc1 [3-methylpyridine] + CO
Details	excess molar enthalpy, [2] [kcal/mol]	mass density, [1]
x1 = 0.002075	–	787.397 ± 0.61 kg/m3
x1 = 0.004143	-0.00457 ± 0.000225	788.32 ± 0.61 kg/m3
x1 = 0.004144	-0.00455 ± 0.000225	788.293 ± 0.61 kg/m3
x1 = 0.006201	-0.00684 ± 0.000239	789.24 ± 0.61 kg/m3
x1 = 0.006203	-0.00681 ± 0.000239	789.213 ± 0.61 kg/m3
x1 = 0.008251	-0.00912 ± 0.000263	790.158 ± 0.61 kg/m3
x1 = 0.008253	-0.00905 ± 0.000263	790.117 ± 0.61 kg/m3
x1 = 0.01029	-0.0113	791.057 ± 0.61 kg/m3 and 791.007 ± 0.61 kg/m3
x1 = 0.01232	-0.0135	791.892 ± 0.61 kg/m3

CN1CCCCC1 [N-methylpiperidine] + CO
Details	excess molar enthalpy, [2]	mass density, [1] [kg/m3]
x1 = 0.001664	-0.00412 kcal/mol and -0.00411 kcal/mol	786.815 ± 0.61
x1 = 0.003322	-0.00819 ± 0.000263 kcal/mol	787.153 ± 0.61
x1 = 0.003323	-0.00814 ± 0.000263 kcal/mol	787.15 ± 0.61
x1 = 0.004975	-0.0122 ± 0.000287 kcal/mol	787.488 ± 0.61
x1 = 0.004976	-0.0122 ± 0.000287 kcal/mol	787.486 ± 0.61
x1 = 0.006622	-0.0162 ± 0.000311 kcal/mol	787.816 ± 0.61
x1 = 0.006624	-0.0161 ± 0.000311 kcal/mol	787.816 ± 0.61
x1 = 0.008264	-0.0201 ± 0.000359 kcal/mol	788.141 ± 0.61
x1 = 0.008266	-0.0201 ± 0.000359 kcal/mol	788.139 ± 0.61
x1 = 0.0099	-0.024 ± 0.000382 kcal/mol	788.458 ± 0.61
x1 = 0.009904	-0.0239 ± 0.000382 kcal/mol	788.454 ± 0.61

CN1CCOCC1 [N-methylmorpholine] + CO
Details	excess molar enthalpy, [2]	mass density, [1]
x1 = 0.001834	–	787.377 ± 0.61 kg/m3 and 787.359 ± 0.61 kg/m3
x1 = 0.003662	-0.00519 ± 0.000229 kcal/mol	788.239 ± 0.61 kg/m3
x1 = 0.003663	-0.0052 ± 0.000229 kcal/mol	788.267 ± 0.61 kg/m3
x1 = 0.005484	-0.00777 kcal/mol and -0.00772 kcal/mol	789.159 ± 0.61 kg/m3 and 789.119 ± 0.61 kg/m3
x1 = 0.007298	-0.0103 ± 0.000263 kcal/mol	790.004 ± 0.61 kg/m3
x1 = 0.007299	-0.0103 ± 0.000263 kcal/mol	790.044 ± 0.61 kg/m3
x1 = 0.009104	-0.0128 ± 0.000287 kcal/mol	790.862 ± 0.61 kg/m3
x1 = 0.009108	-0.0128 ± 0.000287 kcal/mol	790.908 ± 0.61 kg/m3
x1 = 0.0109	-0.0152 ± 0.000311 kcal/mol	791.711 ± 0.61 kg/m3
x1 = 0.01091	-0.0152 ± 0.000311 kcal/mol	791.753 ± 0.61 kg/m3
